System: adiponectin
Assay: Serum total and multimeric adiponectin in subjects with NAFLD treated 24 weeks with EC-cysteamine
Type: in vivo, human
Source text: Eleven children ≧10 years, with biopsy-proven NAFLD and an alanine aminotransferase (ALT) level ≧60 IU/L, were enrolled. They were either newly diagnosed or had not received specific therapy for NAFLD such as vitamin E or insulin-sensitizing drugs for at least 3 months before entering the study. All had undertaken standard of care lifestyle changes involving diet and exercise for more than 3 months. The study's primary outcome measure was normalization (≦40 IU/L) or 50% reduction in baseline serum ALT at 24 weeks of EC-cysteamine therapy; these subjects were deemed responders.
Subjects were treated for 24 wks and remained monitored for 24 weeks following its discontinuation. The mean EC-cysteamine dose ingested was 654 mg twice daily or 15.2 mg/kg/day (median dose 900 mg) for 24 wks.
During the pilot study blood was collected at pre-defined intervals. Serum was stored at −80° C. until time of assay. Adequate serum volumes were available in 10 of the 11 subjects with NAFLD and only up to 16 weeks post-treatment.
Total and multimeric adiponectin levels were measured in serum taken from: (1) subject with NAFLD collected at 0 and 24 wks of cysteamine therapy and again 16 wks after stopping therapy (i.e., 40 weeks); (2) pretreated 0-week subjects with NAFLD and adults without NAFLD at room temperature and at 37° C. and also after incubation with cysteamine 90 μM for 1 hour at 37° C.; and (3) pretreated 0-week subjects with NAFLD before and after incubation with cysteamine at varying concentrations (15, 30, 45, 60, 90, 120 μM) for 1 hour at 37° C. to establish dose-response profile.
Sodium dodecyl sulfate polyacrylamide gel electrophoresis (SDS-PAGE) was performed according to standard Laemmli's method. Sample buffer for non-reducing, non-heat denaturing conditions contained 3% SDS; 50 mmol/1 Tris-HCL, pH 6.8 and 20% glycerol. Proteins were separated using 3-8% Tris-Acetate Gels (Invitrogen, Carlsbad Calif.) with Tris-Acetate running buffer per manufacturer instructions. For immunoblotting, proteins were transferred to nitrocellulose membranes. Membranes were washed with Tween (Tris-buffered Saline, 0.1% […]) and incubated with monoclonal antibody (1:500 BD Transduction Laboratories, San Diego, Calif.). After washing with Tris-buffered saline with 0.1% Tween (4×5 min) membranes were incubated with L-COR secondary antibodies (LI-COR Biotechnology, Lincoln Nebr.) at 1:20,000. Adiponectin multimers were detected and quantified using the LICOR imager and software analysis program. Relative distribution of adiponectin multimers was determined by dividing band density by total density (cellular adiponectin) or by total adiponectin as determined by ELISA (Millipore, Billerica, Mass.). The percentage of adionectin multimer was then multiplied by the total adiponectin level to calculate absolute oligomer value.

[1] = after discontinuing therapy at 24 weeks, P=0.01

NCCS.O=C(O)C(O)C(O)C(=O)O (stereo not shown) [cysteamine bitartrate, Cysteamine bitartrate]
mean percent change of HMW adiponectin from baseline (7 responders, 24 weeks): 87.7%
mean percent change of LMW adiponectin from baseline (7 responders, 24 weeks): 33.9%
mean percent change of MMW adiponectin from baseline (7 responders, 24 weeks): 13.7%
mean percent change of total adiponectin from baseline (7 responders, 24 weeks): 57.5%
all adiponectin multimer levels, difference from baseline (40-week timepoint (16 weeks off therapy)): ≤ 2%
LMW adiponectin change between 24-week and 40-week timepoints (after discontinuing therapy at 24 weeks, P=0.009): significant mean percent reduction
MMW adiponectin change between 24-week and 40-week timepoints [1]: significant mean percent reduction
total adiponectin change between 24-week and 40-week timepoints [1]: significant mean percent reduction
HMW adiponectin change between 24-week and 40-week timepoints (after discontinuing therapy at 24 weeks, P=0.02): significant mean percent reduction
mean percent increase of total adiponectin from baseline (all subjects, 0-24 weeks oral EC-cysteamine, P=0.05): 49.3%
mean percent increase of HMW adiponectin from baseline (all subjects, 24 weeks oral EC-cysteamine (15.2 mg/kg/day), P=0.02): 53%
mean percent increase of MMW adiponectin from baseline (all subjects, 24 weeks oral EC-cysteamine, P=0.02): 19%
mean percent increase of LMW adiponectin from baseline (all subjects, 24 weeks oral EC-cysteamine, P=0.03): 29.4%
